What is called IC50 is the midpoint of a concentration-inhibition curve.

The structures appear in SMILES notation.

The text below walks through data of ChEMBL document CHEMBL5247684, “Novel C-Linked Isoquinoline Amides as LRRK2 Inhibitors for Treating Parkinson's Disease” (ACS Med Chem Lett, 2023).

The assay concerns the target Leucine-rich repeat serine/threonine-protein kinase 2 (Homo sapiens, UniProt Q5S007, G2019S). Nature of the assay: Inhibition of GST20-tagged truncated human LRRK2 G2019S mutant using fluorescein labeled LRRKtide peptide as substrate by Lantha screen assay.

Chain of Leucine-rich repeat serine/threonine-protein kinase 2 (Q5S007 whole entry G2019S, the tested form may be a part): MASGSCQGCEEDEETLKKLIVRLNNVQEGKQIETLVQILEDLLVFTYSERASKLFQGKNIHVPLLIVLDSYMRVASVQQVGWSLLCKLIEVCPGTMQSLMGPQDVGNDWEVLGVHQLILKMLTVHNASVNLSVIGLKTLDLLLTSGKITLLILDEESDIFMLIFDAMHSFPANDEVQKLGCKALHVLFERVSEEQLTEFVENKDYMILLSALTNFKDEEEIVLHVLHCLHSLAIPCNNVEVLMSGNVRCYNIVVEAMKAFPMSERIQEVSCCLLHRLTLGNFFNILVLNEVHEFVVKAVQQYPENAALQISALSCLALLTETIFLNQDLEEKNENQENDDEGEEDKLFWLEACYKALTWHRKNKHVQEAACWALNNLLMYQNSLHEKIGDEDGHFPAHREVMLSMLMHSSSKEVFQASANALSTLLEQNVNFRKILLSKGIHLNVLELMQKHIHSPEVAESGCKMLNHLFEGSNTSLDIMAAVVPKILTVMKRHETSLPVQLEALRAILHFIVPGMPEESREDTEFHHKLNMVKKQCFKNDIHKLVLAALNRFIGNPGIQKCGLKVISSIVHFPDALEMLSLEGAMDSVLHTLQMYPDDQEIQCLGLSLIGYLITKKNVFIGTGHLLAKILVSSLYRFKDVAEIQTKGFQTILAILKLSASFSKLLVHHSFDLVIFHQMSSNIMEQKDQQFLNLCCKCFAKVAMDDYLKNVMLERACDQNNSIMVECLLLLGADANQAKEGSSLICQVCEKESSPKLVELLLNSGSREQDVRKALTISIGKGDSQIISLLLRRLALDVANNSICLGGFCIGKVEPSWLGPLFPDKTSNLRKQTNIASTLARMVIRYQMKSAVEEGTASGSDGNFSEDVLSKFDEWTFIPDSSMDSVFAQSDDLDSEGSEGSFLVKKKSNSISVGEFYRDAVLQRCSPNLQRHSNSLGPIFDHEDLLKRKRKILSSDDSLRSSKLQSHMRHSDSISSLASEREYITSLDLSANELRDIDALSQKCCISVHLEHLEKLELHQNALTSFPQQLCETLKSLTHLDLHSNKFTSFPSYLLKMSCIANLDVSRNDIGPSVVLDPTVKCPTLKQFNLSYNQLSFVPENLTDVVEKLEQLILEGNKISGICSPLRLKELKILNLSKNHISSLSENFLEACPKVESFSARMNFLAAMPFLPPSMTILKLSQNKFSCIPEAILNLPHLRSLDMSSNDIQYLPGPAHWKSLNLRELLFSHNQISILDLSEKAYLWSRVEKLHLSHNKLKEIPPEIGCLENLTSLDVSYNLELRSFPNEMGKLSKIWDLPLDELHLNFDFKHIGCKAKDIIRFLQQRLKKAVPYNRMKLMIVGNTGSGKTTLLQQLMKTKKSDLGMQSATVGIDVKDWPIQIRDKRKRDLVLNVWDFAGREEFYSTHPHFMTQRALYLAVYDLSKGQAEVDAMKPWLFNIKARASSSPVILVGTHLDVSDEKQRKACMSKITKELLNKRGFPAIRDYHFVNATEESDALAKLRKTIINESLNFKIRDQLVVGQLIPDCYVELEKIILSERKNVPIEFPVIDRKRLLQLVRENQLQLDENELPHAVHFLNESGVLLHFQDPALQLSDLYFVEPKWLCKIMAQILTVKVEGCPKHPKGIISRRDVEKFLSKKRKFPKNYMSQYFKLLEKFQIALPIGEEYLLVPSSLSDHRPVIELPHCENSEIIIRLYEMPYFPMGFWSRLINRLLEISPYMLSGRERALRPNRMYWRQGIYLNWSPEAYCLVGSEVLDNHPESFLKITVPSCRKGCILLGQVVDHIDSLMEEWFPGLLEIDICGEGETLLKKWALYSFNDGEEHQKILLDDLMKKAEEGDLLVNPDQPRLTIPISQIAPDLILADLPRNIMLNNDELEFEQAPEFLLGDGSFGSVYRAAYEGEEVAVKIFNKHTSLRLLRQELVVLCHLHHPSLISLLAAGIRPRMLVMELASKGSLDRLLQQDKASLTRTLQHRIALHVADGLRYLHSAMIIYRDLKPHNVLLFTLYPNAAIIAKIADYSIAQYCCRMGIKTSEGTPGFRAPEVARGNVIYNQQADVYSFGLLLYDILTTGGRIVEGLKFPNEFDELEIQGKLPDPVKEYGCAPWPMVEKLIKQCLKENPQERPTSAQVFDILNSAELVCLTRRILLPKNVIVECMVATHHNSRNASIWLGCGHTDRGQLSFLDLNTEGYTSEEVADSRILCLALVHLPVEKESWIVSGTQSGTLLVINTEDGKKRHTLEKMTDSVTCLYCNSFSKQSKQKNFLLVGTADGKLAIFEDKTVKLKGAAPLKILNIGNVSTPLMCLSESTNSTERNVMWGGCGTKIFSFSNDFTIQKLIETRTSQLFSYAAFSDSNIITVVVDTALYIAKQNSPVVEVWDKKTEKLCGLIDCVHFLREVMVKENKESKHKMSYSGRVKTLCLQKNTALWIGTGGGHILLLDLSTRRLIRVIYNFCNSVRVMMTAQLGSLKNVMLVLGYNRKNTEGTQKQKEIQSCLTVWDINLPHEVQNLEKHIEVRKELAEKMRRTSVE

`C[C@@]1(N2CC[C@@H](c3cc4cc(NC(=O)C5CC56CC6)ncc4cc3Cl)[C@H](F)C2)COC[C@@H]1O` (stereo partly specified) gave an IC50 of 0.0813 nM.
